Source: ChEMBL document CHEMBL1201862, “PubChem BioAssay data set” (2004)
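Method: 48-hour compound exposure of cells in 96-well plates, five concentrations, linear interpolation of endpoints. At the GI50, growth is halved.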 Activity calls are given as the source filed them. Cut-off read from the data, not from the text of the source: active = GI50 up to about 1.1 µM and inactive = higher.

Columns and labels:
Assay in all cases: NCI tumour cell line growth inhibition, 48 h
[1] = test system: EKVX
[2] = test system: MOLT-4
[3] = test system: LOX IMVI
[4] = test system: SNB-75
[5] = test system: SR
[6] = test system: MDA-MB-435
[7] = test system: PC-3
[8] = test system: NCI-H460
[9] = test system: HCT-15
[10] = test system: A498
[11] = test system: OVCAR-5
[12] = test system: SN12C
[13] = test system: HOP-92
[14] = test system: 786-0
[15] = test system: TK-10
[16] = test system: M14
[17] = test system: SK-MEL-5
[18] = test system: OVCAR-8
[19] = test system: MDA-MB-231
[20] = test system: K562

| Compound | GI50 [1] | GI50 [2] | GI50 [3] | GI50 [4] | GI50 [5] | GI50 [6] | GI50 [7] | GI50 [8] | GI50 [9] [µM] | GI50 [10] | GI50 [11] | GI50 [12] | GI50 [13] | GI50 [14] | GI50 [15] | GI50 [16] | GI50 [17] | GI50 [18] | GI50 [19] | GI50 [20] |
| --- | --- | --- | --- | --- | --- | --- | --- | --- | --- | --- | --- | --- | --- | --- | --- | --- | --- | --- | --- | --- |
| COC(=O)[C@]1(c2cc3ccccc3n2S(=O)(=O)c2ccccc2)CC2CN(C(C)=O)C1CC2=O (stereo partly drawn) | 2.02 µM (inactive) | 0.855 µM (active) | 1.9 µM (inactive) | 3.15 µM (inactive) | 1.59 µM (inactive) | 2.34 µM (inactive) | 1.64 µM (inactive) | 3.14 µM (inactive) | 2.48 | 9.64 µM (inactive) | 3.3 µM (inactive) | 2.68 µM (inactive) | 5.52 µM (inactive) | 1.28 µM (inactive) | 7.73 µM (inactive) | 1.96 µM (inactive) | 3.27 µM (inactive) | 3.43 µM (inactive) | 2.58 µM (inactive) | 1.98 µM (inactive) |
| C[C@]12CCC(N3CCCC3)CC1=CC[C@@H]1[C@@H]2CC[C@]2(C)C(O)[C@H](n3ccnc3)C[C@@H]12 (stereo partly drawn) | > 100 µM (inactive) | 14.2 µM (inactive) | 34.4 µM (inactive) | > 10 µM (inactive) | 15.3 µM (inactive) | 36.6 µM (inactive) | 36.7 µM (inactive) | 42.6 µM (inactive) | 20.9 | > 100 µM (inactive) | 53.8 µM (inactive) | 46.5 µM (inactive) | > 100 µM (inactive) | 41.6 µM (inactive) | > 100 µM (inactive) | 15.7 µM (inactive) | 53 µM (inactive) | 61.2 µM (inactive) | > 100 µM (inactive) | 27.2 µM (inactive) |
| C=CCOC(=O)[C@@H]1C[C@@H](OC(C)(C)C)CN1C(=O)[C@@H]1[C@H]2OC(C)(C)O[C@H]2CN1C(=O)OCC1c2ccccc2-c2ccccc21 | 5.05 µM (inactive) | 15.6 µM (inactive) | 2.3 µM (inactive) | 17.5 µM (inactive) | 8.05 µM (inactive) | 17.2 µM (inactive) | 15.7 µM (inactive) | 10.5 µM (inactive) | 11.4 | 15.7 µM (inactive) | 16.9 µM (inactive) | 17 µM (inactive) | 18.1 µM (inactive) | 5.46 µM (inactive) | 18.4 µM (inactive) | 19.7 µM (inactive) | 18.9 µM (inactive) | 5.87 µM (inactive) | 17.9 µM (inactive) | 11 µM (inactive) |
| Cc1nc2cc3ccccc3cc2[nH]c1=O | 0.805 µM (active) | 44 µM (inactive) | > 100 µM (inactive) | 24.5 µM (inactive) | 78.3 µM (inactive) | > 100 µM (inactive) | > 100 µM (inactive) | 61.1 µM (inactive) | 82 | 19.8 µM (inactive) | > 100 µM (inactive) | > 100 µM (inactive) | 26.1 µM (inactive) | 44.9 µM (inactive) | 80.2 µM (inactive) | > 100 µM (inactive) | 96.2 µM (inactive) | 70.5 µM (inactive) | 72.3 µM (inactive) | 38.8 µM (inactive) |
| O=C1OC(OC/C(Br)=C(/Br)COC2OC(=O)C(Cl)=C2Cl)C(Cl)=C1Cl (stereo not drawn) | 16.1 µM (inactive) | 2.26 µM (inactive) | 2.69 µM (inactive) | 18.7 µM (inactive) | 0.724 µM (active) | 9.71 µM (inactive) | 15.8 µM (inactive) | 19.6 µM (inactive) | 9.29 | 21.9 µM (inactive) | 14.1 µM (inactive) | 9.1 µM (inactive) | 9.4 µM (inactive) | 5.82 µM (inactive) | 13.5 µM (inactive) | 6.79 µM (inactive) | 13.4 µM (inactive) | 6.93 µM (inactive) | 7.69 µM (inactive) | 2.07 µM (inactive) |
| C=C1CC(CNc2cc(Cl)nc(N)n2)C1 | 23.1 µM (inactive) | > 100 µM (inactive) | > 100 µM (inactive) | > 100 µM (inactive) | > 100 µM (inactive) | > 100 µM (inactive) | > 100 µM (inactive) | > 100 µM (inactive) | 67.8 | 1.99 µM (inactive) | > 100 µM (inactive) | > 100 µM (inactive) | 78.2 µM (inactive) | > 100 µM (inactive) | > 100 µM (inactive) |  | 50.5 µM (inactive) | > 100 µM (inactive) | > 100 µM (inactive) | 71.6 µM (inactive) |
| O=c1oc2ccccc2c(-c2ccc(O)cc2)c1Oc1ccccc1 | 15.7 µM (inactive) | 28.8 µM (inactive) | 9.93 µM (inactive) | > 46.8 µM (inactive) | 41.8 µM (inactive) | 22.1 µM (inactive) | 8.49 µM (inactive) | 6.85 µM (inactive) | 7.83 | 7.71 µM (inactive) | 18.8 µM (inactive) | 21.5 µM (inactive) | 10.2 µM (inactive) | 23.1 µM (inactive) | 8.05 µM (inactive) | 9.16 µM (inactive) | 14.1 µM (inactive) |  | 3.17 µM (inactive) | 34.6 µM (inactive) |
